Test results published in patent publication US8114850B2, “Antiproliferative activity of G-rich oligonucleotides and method of using same to bind to nucleolin” (Advanced Cancer Therapeutics, LLC, priority 1999, dated 2012).

Columns and labels:
[1] = biological target: T1, 106 kDa nuclear protein (p106, GRO-binding protein/nucleolin) (Homo sapiens, UniProt P19338); test: Southwestern blot of HeLa nuclear extracts; details: 32P-labeled oligonucleotide, 4° C.; FIG. 6D
T1 construct: HeLa nuclear extracts used in EMSAs were purchased from Promega Inc. (bandshift grade); host or cells: HeLa nuclear extract (bandshift grade), purchased
Description: Nuclear extracts were electrophoresed on a 8% polyacrylamide-SDS gel and transferred to polyvinylidene difluoride (PVDF) membrane by electroblotting using a Tris glycine/methanol (10% v/v) buffer. Immobilized proteins were denatured and renatured by washing for thirty minutes at 4° C. with 6 M guanidine. HCl followed by washes in 1:1, 1:2 and 1:4 dilutions of 6M guanidine in HEPES binding buffer (25 mM HEPES pH 7.9, 4 mM KCl, 3 mM MgCl2). The membrane was blocked by washing for one hour in a 5% solution of non-fat dried milk (NDM) in binding buffer.
Hybridization of the labeled oligonucleotide (1-4×10^6 cpm) took place for two hours at 4° C. in HEPES binding buffer supplemented with 0.25% NDM, 0.05% Nonidet P […] salmon sperm DNA and […] of an unrelated, mixed sequence 35-mer oligonucleotide (5′-[…] CTTCCTTCCTCTCCA-3′SEQ ID No: 19). Membranes were washed in binding buffer and visualized by autoradiography.
The molecular weight of the nuclear protein was more accurately determined by Southwestern blotting. HeLa nuclear extracts were electrophoresed on an 8% polyacrylamide-SDS gel and transferred to a PVDF membrane. The membrane was blocked and cut into strips. Each strip was incubated at 4° C. with a 32P-labeled G-rich oligonucleotide in the presence of unrelated unlabeled double stranded and single stranded DNA to block non-specific binding.

[2] = test system: MDA-MB-231 breast cancer cells; test: MTT cell growth assay, MDA-MB-231 cells; assay type: cell-based, human; details: for growth of MDA-MB-231 cells (MTT): 15 uM on day 1, half the initial dose on days 2-4, 3′-propylamino oligonucleotides, vs water control, FIG. 1B
Description: Cells were plated at low density ([…] cells per well, depending on cell line) in the appropriate serum-supplemented medium in 96-well plates (one plate per MTT assay time point) and grown under standard conditions of cell culture. The following day (day 1) oligonucleotide, or water as control, was added to the culture medium to give a final concentration of 15 uM. Further oligonucleotide, equivalent to half the initial dose, was added to the culture medium on days two, three and four. Cells were assayed using the MTT assay (Morgan (1998) Methods. Mol. Biol. 79, 179-183) on days one, three, five, seven and nine after plating. The culture medium was not changed throughout the duration of the experiment (which was the time required for untreated cells to grow to confluence). Experiments were performed in triplicate and bars represent the standard error of the data. For the experiment shown in FIG. 7A, MDA-MB-231 breast cancer cells (5×10^2 cells per well) were plated in a 96-well plate. After twenty-four hours, a single dose of oligonucleotide, or equal volume of PBS as a control, was added to the culture medium to a final concentration of 10 uM. Viable cells were assessed seven days after plating using the MTT assay. For the experiment using 3′-unmodified oligonucleotides (FIG. 7D), serum-supplemented medium was replaced by serum-free medium containing oligonucleotide (or serum-free medium alone in control wells). After incubation at 37° C. for four hours, fetal calf serum (Life Technologies, Inc.) was added to the medium to give 10% v/v.

MCF-7 cells = test: MTT cell growth assay, MCF-7 cells; assay type: cell-based, human; details: 15 uM on day 1, half the initial dose on days 2-4; 3′-propylamino oligonucleotides; vs water control; FIG. 1D
Description: (§1) Cells were plated at low density ([…] cells per well, depending on cell line) in the appropriate serum-supplemented medium in 96-well plates (one plate per MTT assay time point) and grown under standard conditions of cell culture. The following day (day 1) oligonucleotide, or water as control, was added to the culture medium to give a final concentration of 15 uM. Further oligonucleotide, equivalent to half the initial dose, was added to the culture medium on days two, three and four.
(§2) Cells were assayed using the MTT assay (Morgan (1998) Methods. Mol. Biol. 79, 179-183) on days one, three, five, seven and nine after plating. The culture medium was not changed throughout the duration of the experiment (which was the time required for untreated cells to grow to confluence). Experiments were performed in triplicate and bars represent the standard error of the data.

[3] = biological target: T2, GRO-binding protein/nucleolin (HeLa nuclear extracts) (Homo sapiens, UniProt P19338); test: EMSA of 32P-labeled oligonucleotides with HeLa nuclear extracts; details: 32P-labeled oligonucleotide, FIG. 6A
T2 construct: HeLa nuclear extracts used in EMSAs were purchased from Promega Inc. (bandshift grade); host or cells: HeLa nuclear extract (bandshift grade), purchased
Description: Oligonucleotides were 5′-labeled with 32p using T4 kinase. Labeled oligonucleotide (final concentration 1 nM, approximately 50,000 cpm) was preincubated for thirty minutes at 37° C. either alone or in the presence of unlabeled competitor oligonucleotide. Nuclear extracts were added, and the sample was incubated a further thirty minutes at 37° C. Both the preincubation and binding reactions were carried out in Buffer A (20 mM Tris. HCl pH 7.4, 140 mM KCl, 2.5 mM MgCl2, 1 mM dithiothreitol, 0.2 mM phenylmethyl sulfonyl fluoride and 8% (v/v) glycerol). Electrophoresis was carried out using 5% polyacrylamide gels in TBE buffer (90 mM Tris borate, 2 mM EDTA).
HeLa nuclear extracts used in EMSAs were purchased from Promega Inc. (bandshift grade). Nuclear and cytoplasmic extracts from MDA-MB-231 cells were prepared using the protocol described in F. M. Ausubel et al. Ausubel et al. (Eds.) (1996) Current Protocols in Molecular Biology, Wiley, N.Y., Section 12.1. Plasma membrane proteins were prepared from MDA-MB-231 cells using a method previously described. Yao et al. (1996) Biochemical Pharmacology 51, 431-436; Naito et al. (1988) J. Biol. Chem. 263, 11887-11891.
To investigate further the mechanism of the growth modulatory effects, binding of the oligonucleotides to cellular proteins was examined. […]

DU145 cells = test: MTT cell growth assay, DU145 cells; assay type: cell-based, human; details: 15 uM on day 1, half the initial dose on days 2-4; 3′-propylamino oligonucleotides; vs water control; FIG. 1A
Description: as §1, §2

T2 sequence (P19338 whole entry): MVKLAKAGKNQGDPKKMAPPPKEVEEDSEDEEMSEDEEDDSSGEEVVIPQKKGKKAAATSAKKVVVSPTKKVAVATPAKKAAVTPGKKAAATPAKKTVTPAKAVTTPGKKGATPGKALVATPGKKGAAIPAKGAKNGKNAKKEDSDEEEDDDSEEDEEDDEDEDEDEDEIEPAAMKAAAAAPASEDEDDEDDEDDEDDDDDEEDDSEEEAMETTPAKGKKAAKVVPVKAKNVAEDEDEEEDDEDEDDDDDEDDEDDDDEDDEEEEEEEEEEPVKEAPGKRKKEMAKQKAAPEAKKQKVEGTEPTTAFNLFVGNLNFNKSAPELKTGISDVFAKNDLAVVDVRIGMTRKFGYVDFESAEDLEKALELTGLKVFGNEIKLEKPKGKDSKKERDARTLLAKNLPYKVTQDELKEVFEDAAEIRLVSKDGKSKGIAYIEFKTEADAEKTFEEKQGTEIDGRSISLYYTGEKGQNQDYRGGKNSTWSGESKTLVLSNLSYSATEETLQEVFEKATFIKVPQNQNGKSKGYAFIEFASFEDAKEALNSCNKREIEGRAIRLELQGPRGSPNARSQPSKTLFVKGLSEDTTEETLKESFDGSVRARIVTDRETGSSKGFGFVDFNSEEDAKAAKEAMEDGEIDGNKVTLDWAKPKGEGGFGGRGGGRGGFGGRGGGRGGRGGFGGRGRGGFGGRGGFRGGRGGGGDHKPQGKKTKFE
T1 sequence (P19338 whole entry): as above

Substance | hybridization to protein band at 106 kDa (Southwestern blot) [1] | growth of MDA-MB-231 cells (MTT) [2] | growth of MCF-7 cells (MTT) (MCF-7 cells) | protein-oligonucleotide complex band (EMSA) [3] | growth of DU145 cells (MTT) (DU145 cells) | antiproliferative activity, MDA-MB-231 ([2]; single 10 uM dose, FIG. 7A)
5′-GTTGTTTGG GGTGGT-3′ (GTTGTTTGGGGTGGT; DNA, backbone not given here; further chemistry not fully specified) [GRO15A] | hybridized to a single protein band at 106 kDa | modulated proliferation | modulated proliferation | intense | modulated proliferation | –
5′-TTTGGTGGTGGTGG TTGTGGTGGTGGTGG-3′ [GR029A] | hybridized to a single protein band at 106 kDa | modulated proliferation | modulated proliferation | intense | modulated proliferation | active
